The record followed here is patent publication US10005774B2, “Syk inhibitors” (Gilead Sciences, Inc., priority 2013, dated 2018).

The term IC50 denotes the concentration at which inhibition is half-maximal.

The target in the first assay is Syk (Homo sapiens, UniProt P43405). Nature of the assay: High Throughput Syk Biochemical Assay (KinEASE TR-FRET). To be noted: TABLE D, 20 μM ATP, 1 μM biotinylated peptide, 0.015 nM Syk, 30 min at room temperature, read-out: IC50. The procedure:
High Throughput Syk Biochemical Assay
Syk activity was measured using KinEASE (Cisbio), a time-resolved fluorescence resonance energy transfer (TR-FRET) immunoassay. In this assay. Syk-catalyzes the phosporylation of a XL665-labeled peptide substrate. Europium conjugated phospho-tyrosine specific antibody binds the resulting phosphorylated peptide. Formation of phosphorylated peptide is quantified by TR-FRET with Europium as the donor and XL665 the acceptor in a 2-step endpoint assay. In brief, test compounds serially diluted in DMSO were delivered into Corning white, low volume, non-binding 384 well plates using the Echo 550 acoustic liquid dispenser (Labcyte®). Syk enzyme and substrates were dispensed into assay plates using a Multi-Flo (Bio-Tek Instruments). […] Percent inhibition was calculated as follows: % Inhibition=100×(RatioSample−Ratio0% Inhibition)/(Ratio100% Inhibition−Ratio0% Inhibition)
With `COC[C@@H](Oc1nc(-c2cnn(C(C)(C)C)c2)cc2ncn(C)c12)[C@H]1CNC(=O)C1` [(R)-4-((S)-1-(6-(1-tert-butyl-1H-pyrazol-4-yl)-3-methyl-3H-imidazo[4,5-c]pyridin-4-yloxy)-2-methoxyethyl)pyrrolidin-2-one], the 50% inhibitory concentration (IC50) came out at 186 nM.

Regarding `C[C@@H](Oc1nc(-c2cnn(CC(F)F)c2)cc2ncn(C)c12)[C@H]1CNC(=O)C1` [(R)-4-((R)-1-(6-(1-(2,2-difluoroethyl)-1H-pyrazol-4-yl)-3-methyl-3H-imidazo[4,5-c]pyridin-4-yloxy)ethyl)pyrrolidin-2-one], the half-inhibitory concentration (IC50) was found to be 17.7 nM.

`COc1ccc(-c2cc3ncn(C)c3c(O[C@H](C)[C@H]3CNC(=O)C3)n2)cn1` [(R)-4-((R)-1-(6-(6-methoxypyridin-3-yl)-3-methyl-3H-imidazo[4,5-c]pyridin-4-yloxy)ethyl)pyrrolidin-2-one]: the IC50 stood at 71.7 nM.

For the compound `C[C@@H](Oc1cc(-c2ccc(N3CCN(C(=O)OC(C)(C)C)CC3)cc2)cc2ncsc12)[C@H]1CNC(=O)C1` (stereo in doubt) [tert-butyl 4-(4-(7-((R)-1-((R)-5-oxopyrrolidin-3-yl)ethoxy)benzo[d]thiazol-5-yl)phenyl)piperazine-1-carboxylate], the IC50 was found to be 9.04 nM.

For the compound `COc1ccc(-c2cc3nc(C)n(C4CC4)c3c(O[C@H](C)[C@H]3CNC(=O)C3)n2)cc1OC` [(R)-4-((R)-1-(3-cyclopropyl-6-(3,4-dimethoxyphenyl)-2-methyl-3H-imidazo[4,5-c]pyridin-4-yloxy)ethyl)pyrrolidin-2-one], the IC50 was 95.8 nM.

For the compound `CC(=O)N1CCN(c2ccc(-c3cc4ncn(C)c4c(O[C@H](C)[C@H]4CNC(=O)C4)n3)cc2)CC1` [(R)-4-((R)-1-(6-(4-(4-acetylpiperazin-1-yl)phenyl)-3-methyl-3H-imidazo[4,5-c]pyridin-4-yloxy)ethyl)pyrrolidin-2-one], the IC50 worked out at 3.14 nM.

The same assay, now with this note: table 'ALL NEW COMPOUNDS IN 2014', 20 μM ATP, 1 μM biotinylated peptide, 0.015 nM Syk, 30 min at room temperature, read-out: Syk IC50.
Regarding `C[C@@H](Oc1cc(-c2ccc(N3CCN(C4COC4)CC3)nc2)cc2ncn(C3CC3)c12)[C@H]1CNC(=O)C1` [(R)-4-((R)-1-((1-cyclopropyl-5-(6-(4-(oxetan-3-yl)piperazin-1-yl)pyridin-3-yl)-1H-benzo[d]imidazol-7-yl)oxy)ethyl)pyrrolidin-2-one], the half-maximal inhibitory concentration (IC50) turned out to be 7.38 nM.

Take `C[C@@H](Oc1nc(-c2ccc(N3CC4CC(C3)N4)cc2)cc2ncn(C3CC3)c12)[C@H]1CNC(=O)C1` [(4R)-4-((1R)-1-((6-(4-(3,6-diazabicyclo[3.1.1]heptan-3-yl)phenyl)-3-cyclopropyl-3H-imidazo[4,5-c]pyridin-4-yl)oxy)ethyl)pyrrolidin-2-one]: the IC50 was 2.29 nM.

Regarding `C[C@@H](Oc1nc(-c2ccc3c(c2)NCCN3C)cc2ncn(C3CC3)c12)[C@H]1CNC(=O)C1` [(R)-4-((R)-1-((3-cyclopropyl-6-(1-methyl-1,2,3,4-tetrahydroquinoxalin-6-yl)-3H-imidazo[4,5-c]pyridin-4-yl)oxy)ethyl)pyrrolidin-2-one], the IC50 worked out at 2.25 nM.

`C[C@@H](Oc1nc(-c2ccc(N3CCN(C4COC4)CC3)c(F)c2)cc2ncn(C3CC3)c12)[C@H]1CNC(=O)C1` [(R)-4-((R)-1-((3-cyclopropyl-6-(3-fluoro-4-(4-(oxetan-3-yl)piperazin-1-yl)phenyl)-3H-imidazo[4,5-c]pyridin-4-yl)oxy)ethyl)pyrrolidin-2-one]: the IC50 amounted to 2.37 nM.

With `C[C@@H](Oc1nc(-c2ccc3c(c2)n(C)c(=O)n3C)cc2ncn(C3CC3)c12)[C@H]1CNC(=O)C1`, the half-inhibitory concentration (IC50) worked out at 4.84 nM.

For `C[C@@H](Oc1nc(-c2ccc3c(c2)NC(=O)C3)cc2ncn(C3CC3)c12)[C@H]1CNC(=O)C1` [6-(3-cyclopropyl-4-((R)-1-((R)-5-oxopyrrolidin-3-yl)ethoxy)-3H-imidazo[4,5-c]pyridin-6-yl)indolin-2-one], the 50% inhibitory concentration (IC50) is 1.75 nM.

In the case of `C[C@@H](Oc1nc(-c2ccc(N3CCN(C4COC4)CC3)nc2)cc2ncn(C)c12)[C@H]1CNC(=O)C1` [(R)-4-((R)-1-((3-methyl-6-(6-(4-(oxetan-3-yl)piperazin-1-yl)pyridin-3-yl)-3H-imidazo[4,5-c]pyridin-4-yl)oxy)ethyl)pyrrolidin-2-one], the concentration for half-maximal inhibition (IC50) came to 12.4 nM.
